What was measured:
Experiment in all cases: KINOMEscan competition binding
Settings in all cases: compound 10.0 µM
[1] = system: ABL1 (human), P00519 [M351T]
ACVR2A (human) = ACVR2A (human) (UniProt P27037)
AURKB (human) = AURKB (human) (UniProt Q96GD4)
BMPR1A (human) = BMPR1A (human) (UniProt P36894)
CAMK2G (human) = CAMK2G (human) (UniProt Q13555)
CDC42BPA (human) = CDC42BPA (human) (UniProt Q5VT25)
CDC42BPG (human) = CDC42BPG (human) (UniProt Q6DT37)
CDK17 (human) = CDK17 (human) (UniProt Q00537)
CDK5 (human) = CDK5 (human) (UniProt Q00535)
CHEK1 (human) = CHEK1 (human) (UniProt O14757)
CLK4 (human) = CLK4 (human) (UniProt Q9HAZ1)
CSNK1A1L (human) = CSNK1A1L (human) (UniProt Q8N752)
DAPK2 (human) = DAPK2 (human) (UniProt Q9UIK4)
DMPK (human) = DMPK (human) (UniProt Q09013)
FGFR1 (human) = FGFR1 (human) (UniProt P11362)
[2] = system: FLT3 (human), P36888 [N841I]
FRK (human) = FRK (human) (UniProt P42685)
Chain of FRK (human) (P42685 whole entry, looked up): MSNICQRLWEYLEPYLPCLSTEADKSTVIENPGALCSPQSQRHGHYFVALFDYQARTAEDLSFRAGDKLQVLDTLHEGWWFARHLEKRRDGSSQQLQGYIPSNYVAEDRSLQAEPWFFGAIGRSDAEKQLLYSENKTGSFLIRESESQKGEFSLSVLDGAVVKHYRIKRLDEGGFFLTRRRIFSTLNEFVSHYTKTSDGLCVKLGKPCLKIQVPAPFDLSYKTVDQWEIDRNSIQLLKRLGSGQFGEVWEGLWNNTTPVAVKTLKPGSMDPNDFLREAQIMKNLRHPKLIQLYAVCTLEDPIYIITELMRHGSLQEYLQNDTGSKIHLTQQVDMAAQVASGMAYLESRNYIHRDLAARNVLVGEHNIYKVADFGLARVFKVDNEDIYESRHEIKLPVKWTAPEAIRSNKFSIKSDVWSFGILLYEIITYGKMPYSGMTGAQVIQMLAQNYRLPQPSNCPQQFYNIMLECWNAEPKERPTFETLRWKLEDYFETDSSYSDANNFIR

INSR (human) = INSR (human) (UniProt P06213)
INSRR (human) = INSRR (human) (UniProt P14616)
[3] = molecular target: JAK3 JH1 catalytic (human) (UniProt P52333)
[4] = system: KIT (human), P10721 [V559D]
MAP3K11 (human) = MAP3K11 (human) (UniProt Q16584)
MAP4K3 (human) = MAP4K3 (human) (UniProt Q8IVH8)
MAPK8 (human) = MAPK8 (human) (UniProt P45983)
Chain of MAPK8 (human) (P45983 whole entry, looked up): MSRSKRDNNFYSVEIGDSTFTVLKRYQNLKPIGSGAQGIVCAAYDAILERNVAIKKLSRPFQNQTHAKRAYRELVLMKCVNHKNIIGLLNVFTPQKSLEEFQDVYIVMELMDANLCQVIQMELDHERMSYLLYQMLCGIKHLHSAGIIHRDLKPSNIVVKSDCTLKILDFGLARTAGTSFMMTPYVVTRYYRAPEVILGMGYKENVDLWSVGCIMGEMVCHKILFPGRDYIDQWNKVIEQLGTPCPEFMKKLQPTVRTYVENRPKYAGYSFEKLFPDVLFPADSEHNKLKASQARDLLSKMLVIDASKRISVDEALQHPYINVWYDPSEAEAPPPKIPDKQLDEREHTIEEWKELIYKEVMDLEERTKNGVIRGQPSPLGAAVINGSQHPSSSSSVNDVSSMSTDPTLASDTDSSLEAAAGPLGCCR

MARK3 (human) = MARK3 (human) (UniProt P27448)
MERTK (human) = MERTK (human) (UniProt Q12866)
MST1R (human) = MST1R (human) (UniProt Q04912)
NEK9 (human) = NEK9 (human) (UniProt Q8TD19)
PAK3 (human) = PAK3 (human) (UniProt O75914)
PIK3C2B (human) = PIK3C2B (human) (UniProt O00750)
Chain of PIK3C2B (human) (O00750 whole entry, looked up): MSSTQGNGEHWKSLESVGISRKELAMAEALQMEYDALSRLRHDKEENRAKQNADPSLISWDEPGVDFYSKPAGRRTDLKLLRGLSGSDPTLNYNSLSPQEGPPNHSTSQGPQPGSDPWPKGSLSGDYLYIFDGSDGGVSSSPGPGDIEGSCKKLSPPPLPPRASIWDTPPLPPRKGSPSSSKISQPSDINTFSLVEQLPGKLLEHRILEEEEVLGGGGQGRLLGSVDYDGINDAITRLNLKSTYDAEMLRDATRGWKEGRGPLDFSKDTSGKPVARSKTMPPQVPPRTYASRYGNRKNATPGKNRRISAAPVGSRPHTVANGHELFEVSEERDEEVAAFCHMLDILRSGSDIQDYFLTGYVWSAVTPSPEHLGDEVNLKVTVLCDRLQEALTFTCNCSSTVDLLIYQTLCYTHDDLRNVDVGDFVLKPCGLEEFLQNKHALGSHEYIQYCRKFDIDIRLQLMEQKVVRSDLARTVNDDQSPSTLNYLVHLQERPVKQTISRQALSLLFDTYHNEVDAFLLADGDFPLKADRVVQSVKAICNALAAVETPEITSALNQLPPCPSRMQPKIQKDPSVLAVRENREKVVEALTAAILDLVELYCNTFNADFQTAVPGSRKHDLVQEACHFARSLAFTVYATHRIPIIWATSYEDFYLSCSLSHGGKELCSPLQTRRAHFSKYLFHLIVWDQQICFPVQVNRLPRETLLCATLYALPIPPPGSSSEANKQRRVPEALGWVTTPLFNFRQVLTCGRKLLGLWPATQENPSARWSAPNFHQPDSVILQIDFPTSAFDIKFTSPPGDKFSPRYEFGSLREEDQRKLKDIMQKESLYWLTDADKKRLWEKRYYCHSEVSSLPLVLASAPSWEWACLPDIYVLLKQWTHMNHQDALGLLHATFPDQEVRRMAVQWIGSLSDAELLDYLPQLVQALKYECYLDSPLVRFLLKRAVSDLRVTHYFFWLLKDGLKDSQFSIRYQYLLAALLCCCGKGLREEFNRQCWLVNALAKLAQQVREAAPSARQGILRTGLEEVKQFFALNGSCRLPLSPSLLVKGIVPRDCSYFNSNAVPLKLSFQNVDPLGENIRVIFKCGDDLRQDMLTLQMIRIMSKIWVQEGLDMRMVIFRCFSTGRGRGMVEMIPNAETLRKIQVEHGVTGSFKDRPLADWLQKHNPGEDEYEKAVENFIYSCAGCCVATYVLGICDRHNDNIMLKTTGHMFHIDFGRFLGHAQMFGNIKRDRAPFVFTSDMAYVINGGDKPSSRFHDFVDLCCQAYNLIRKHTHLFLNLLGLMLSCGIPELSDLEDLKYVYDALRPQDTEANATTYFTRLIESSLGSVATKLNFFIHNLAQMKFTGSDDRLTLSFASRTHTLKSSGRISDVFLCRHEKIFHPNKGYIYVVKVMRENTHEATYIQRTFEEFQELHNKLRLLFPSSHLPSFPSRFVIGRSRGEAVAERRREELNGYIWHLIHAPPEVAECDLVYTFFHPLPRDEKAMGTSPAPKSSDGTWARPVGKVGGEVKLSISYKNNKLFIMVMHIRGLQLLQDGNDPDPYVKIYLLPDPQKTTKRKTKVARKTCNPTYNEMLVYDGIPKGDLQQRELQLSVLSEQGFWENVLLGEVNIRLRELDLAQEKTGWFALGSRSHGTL

PIK3CD (human) = PIK3CD (human) (UniProt O00329)
PLK1 (human) = PLK1 (human) (UniProt P53350)
PRKAA2 (human) = PRKAA2 (human) (UniProt P54646)
STK11 (human) = STK11 (human) (UniProt Q15831)
STK17A (human) = STK17A (human) (UniProt Q9UEE5)
STK24 (human) = STK24 (human) (UniProt Q9Y6E0)
STK4 (human) = STK4 (human) (UniProt Q13043)
TGFBR2 (human) = TGFBR2 (human) (UniProt P37173)
TLK2 (human) = TLK2 (human) (UniProt Q86UE8)
Chain of TLK2 (human) (Q86UE8 whole entry, looked up): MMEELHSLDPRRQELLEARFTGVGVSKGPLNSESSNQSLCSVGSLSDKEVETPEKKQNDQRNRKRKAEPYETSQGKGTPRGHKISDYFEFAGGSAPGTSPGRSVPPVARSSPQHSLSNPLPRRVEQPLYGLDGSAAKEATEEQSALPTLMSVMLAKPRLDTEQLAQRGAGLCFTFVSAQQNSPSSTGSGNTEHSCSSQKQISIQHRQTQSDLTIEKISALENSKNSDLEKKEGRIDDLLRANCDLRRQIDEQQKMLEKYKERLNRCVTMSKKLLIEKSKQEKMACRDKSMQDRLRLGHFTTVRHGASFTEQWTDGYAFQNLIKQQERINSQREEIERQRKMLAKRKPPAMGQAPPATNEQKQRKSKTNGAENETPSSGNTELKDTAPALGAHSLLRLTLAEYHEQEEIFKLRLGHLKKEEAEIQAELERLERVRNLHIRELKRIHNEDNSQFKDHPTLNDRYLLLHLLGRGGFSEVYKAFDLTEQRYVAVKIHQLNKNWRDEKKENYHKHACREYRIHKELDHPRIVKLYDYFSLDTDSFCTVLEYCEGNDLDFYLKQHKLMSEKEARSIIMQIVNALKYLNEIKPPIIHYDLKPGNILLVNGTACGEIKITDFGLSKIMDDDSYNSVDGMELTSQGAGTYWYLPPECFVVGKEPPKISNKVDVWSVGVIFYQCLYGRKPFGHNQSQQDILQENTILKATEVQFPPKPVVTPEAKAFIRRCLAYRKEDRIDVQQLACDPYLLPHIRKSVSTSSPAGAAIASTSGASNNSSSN

[5] = molecular target: TYK2 JH1 catalytic (human) (UniProt P29597)
Chain of TYK2 JH1 catalytic (human) (P29597 whole entry, looked up): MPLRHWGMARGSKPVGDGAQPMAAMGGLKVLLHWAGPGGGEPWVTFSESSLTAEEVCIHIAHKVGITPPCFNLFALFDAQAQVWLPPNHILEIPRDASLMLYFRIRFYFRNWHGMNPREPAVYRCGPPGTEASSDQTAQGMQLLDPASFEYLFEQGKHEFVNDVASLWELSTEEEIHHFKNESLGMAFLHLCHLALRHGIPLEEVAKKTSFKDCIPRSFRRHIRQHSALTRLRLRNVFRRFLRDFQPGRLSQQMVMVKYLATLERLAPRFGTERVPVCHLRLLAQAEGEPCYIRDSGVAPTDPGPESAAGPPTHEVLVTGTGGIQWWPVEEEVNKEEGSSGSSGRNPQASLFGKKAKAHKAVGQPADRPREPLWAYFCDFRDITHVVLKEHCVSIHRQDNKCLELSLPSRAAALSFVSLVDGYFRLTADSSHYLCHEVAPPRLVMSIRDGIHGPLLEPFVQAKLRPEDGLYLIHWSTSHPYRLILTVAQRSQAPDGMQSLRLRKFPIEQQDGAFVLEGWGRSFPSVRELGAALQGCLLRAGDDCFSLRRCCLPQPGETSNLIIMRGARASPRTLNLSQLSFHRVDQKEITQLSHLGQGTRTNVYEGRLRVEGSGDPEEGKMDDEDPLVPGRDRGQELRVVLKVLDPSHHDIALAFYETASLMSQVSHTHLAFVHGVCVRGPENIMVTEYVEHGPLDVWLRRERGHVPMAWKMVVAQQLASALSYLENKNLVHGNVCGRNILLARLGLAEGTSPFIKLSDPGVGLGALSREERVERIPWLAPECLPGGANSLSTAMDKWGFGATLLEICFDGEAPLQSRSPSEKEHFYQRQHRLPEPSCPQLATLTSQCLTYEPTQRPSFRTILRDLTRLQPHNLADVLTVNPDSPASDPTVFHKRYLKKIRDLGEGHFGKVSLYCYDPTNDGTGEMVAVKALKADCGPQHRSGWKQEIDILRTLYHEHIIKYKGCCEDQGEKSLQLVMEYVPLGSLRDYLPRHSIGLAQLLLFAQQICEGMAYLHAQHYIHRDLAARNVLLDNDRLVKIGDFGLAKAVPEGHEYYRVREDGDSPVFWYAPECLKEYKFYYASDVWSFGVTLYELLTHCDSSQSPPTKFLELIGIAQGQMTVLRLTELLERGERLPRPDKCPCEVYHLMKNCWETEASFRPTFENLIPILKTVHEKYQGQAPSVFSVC

Chain of AURKB (human) (Q96GD4 whole entry, looked up): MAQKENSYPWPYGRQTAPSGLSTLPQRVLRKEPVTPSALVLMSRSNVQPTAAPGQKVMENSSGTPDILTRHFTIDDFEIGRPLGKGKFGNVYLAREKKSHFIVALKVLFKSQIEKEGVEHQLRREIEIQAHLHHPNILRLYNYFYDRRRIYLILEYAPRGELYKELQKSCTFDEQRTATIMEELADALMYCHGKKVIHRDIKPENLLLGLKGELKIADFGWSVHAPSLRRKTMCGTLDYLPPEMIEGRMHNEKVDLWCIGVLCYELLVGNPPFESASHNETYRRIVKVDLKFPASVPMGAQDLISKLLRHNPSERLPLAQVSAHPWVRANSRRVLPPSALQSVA

Row | Structure (SMILES) | kinase still bound, per cent of control [1] [%] | kinase still bound, per cent of control (ACVR2A (human)) [%] | kinase still bound, per cent of control (AURKB (human)) [%] | kinase still bound, per cent of control (BMPR1A (human)) [%] | kinase still bound, per cent of control (CAMK2G (human)) [%] | kinase still bound, per cent of control (CDC42BPA (human)) [%] | kinase still bound, per cent of control (CDC42BPG (human)) [%] | kinase still bound, per cent of control (CDK17 (human)) [%] | kinase still bound, per cent of control (CDK5 (human)) [%] | kinase still bound, per cent of control (CHEK1 (human)) [%] | kinase still bound, per cent of control (CLK4 (human)) [%] | kinase still bound, per cent of control (CSNK1A1L (human)) [%] | kinase still bound, per cent of control (DAPK2 (human)) [%] | kinase still bound, per cent of control (DMPK (human)) [%] | kinase still bound, per cent of control (FGFR1 (human)) [%] | kinase still bound, per cent of control [2] [%] | kinase still bound, per cent of control (FRK (human)) [%] | kinase still bound, per cent of control (INSR (human)) [%] | kinase still bound, per cent of control (INSRR (human)) [%] | kinase still bound, per cent of control [3] [%] | further results
1 | Cc1ccc(NC(=O)c2cccc(C(C)(C)C#N)c2)cc1Nc1ccc2ncn(C)c(=O)c2c1 | 3.3 | 100 | 100 | 100 | 100 | 100 | 98 | 100 | 100 | 84 | 100 | 100 | 100 | 90 | 59 | 62 | 2.8 | 100 | 100 | 87 | kinase still bound, per cent of control [4]: 0.05%; kinase still bound, per cent of control (MAP3K11 (human)): 91%; kinase still bound, per cent of control (MAP4K3 (human)): 94%; kinase still bound, per cent of control (MAPK8 (human)): 100%; kinase still bound, per cent of control (MARK3 (human)): 89%; kinase still bound, per cent of control (MERTK (human)): 100%; kinase still bound, per cent of control (MST1R (human)): 100%; kinase still bound, per cent of control (NEK9 (human)): 100%; kinase still bound, per cent of control (PAK3 (human)): 81%; kinase still bound, per cent of control (PIK3C2B (human)): 100%; kinase still bound, per cent of control (PIK3CD (human)): 99%; kinase still bound, per cent of control (PLK1 (human)): 100%; kinase still bound, per cent of control (PRKAA2 (human)): 100%; kinase still bound, per cent of control (STK11 (human)): 100%; kinase still bound, per cent of control (STK17A (human)): 100%; kinase still bound, per cent of control (STK24 (human)): 79%; kinase still bound, per cent of control (STK4 (human)): 100%; kinase still bound, per cent of control (TGFBR2 (human)): 94%; kinase still bound, per cent of control (TLK2 (human)): 100%; kinase still bound, per cent of control [5]: 85%
2 | COc1cc(C(=O)NC2CCN(C)CC2)ccc1Nc1ncc2c(n1)N(C1CCCC1)C(C)CC(=O)N2C (stereo not given) | 100 | 100 | 100 | 100 | 34 | 100 | 100 | 100 | 100 | 100 | 100 | 100 | 100 | 100 | 100 | 100 | 100 | 100 | 26 | 100 | kinase still bound, per cent of control [4]: 100%; kinase still bound, per cent of control (MAP3K11 (human)): 100%; kinase still bound, per cent of control (MAP4K3 (human)): 100%; kinase still bound, per cent of control (MAPK8 (human)): 100%; kinase still bound, per cent of control (MARK3 (human)): 100%; kinase still bound, per cent of control (MERTK (human)): 100%; kinase still bound, per cent of control (MST1R (human)): 100%; kinase still bound, per cent of control (NEK9 (human)): 100%; kinase still bound, per cent of control (PAK3 (human)): 100%; kinase still bound, per cent of control (PIK3C2B (human)): 100%; kinase still bound, per cent of control (PIK3CD (human)): 100%; kinase still bound, per cent of control (PLK1 (human)): 19%; kinase still bound, per cent of control (PRKAA2 (human)): 100%; kinase still bound, per cent of control (STK11 (human)): 100%; kinase still bound, per cent of control (STK17A (human)): 100%; kinase still bound, per cent of control (STK24 (human)): 100%; kinase still bound, per cent of control (STK4 (human)): 100%; kinase still bound, per cent of control (TGFBR2 (human)): 100%; kinase still bound, per cent of control (TLK2 (human)): 100%; kinase still bound, per cent of control [5]: 100%

Reference: the kinase profiling compilation of Christmann-Franck et al. (2016)
